What was measured:
[1] = tested on: choline-deficient diet (CDD) rat model; test: Choline-deficient diet (CDD) rat model of NASH-like liver change; assay type: in vivo, Male Wistar rats; conditions: CDD mixed with 4% L-alanine for 4 weeks
Text: Male Wistar rats (7 weeks of age, 5 rats per group) received CDD (Dyets Co.) for 4 weeks.
On the other hand, in the group of 5 rats received CDD mixed with 4% L-alanine for 4 weeks, one rat is normalized in liver weight (10.6 g).

[2] = tested on: HFD-induced fatty liver rat model; test: Hepatic triglyceride contents in high-fat diet (HFD)-induced fatty liver rat model; assay type: in vivo, Male GK rats; conditions: diet mixed with 4% L-alanine for 6 weeks; one rat of 6, in the level of SD group
Experimental: It has been supposed that the increase of the amount of fat intake in the last few decades is one of the causes of the recent increase of the number of patients with NASH. Therefore, the effect of L-alanine on the hepatic triglyceride contents in the high-fat diet (hereinafter HFD)-induced fatty liver rat model.
Male GK rats (9 weeks of age, 6 rats per group) received HFD (containing 30% beef tallow) for 6 weeks. Triglyceride contents in the liver tissue was increased to 29.1 to 49.3 mg per gram of liver tissue, compared with those (14.1 to 24.2 mg) in the group fed with standard diet (containing 5% soy-been oil; hereinafter SD).
Pioglitazone is a drug, which acts as an insulin-sensitizer for the patients with diabetes. Recent clinical pilot studies raise the possibility of clinical utility of pioglitazone for NASH.
On the other hand, in the group of 6 rats received CDD mixed with 4% L-alanine for 6 weeks, one rat is reduced in the liver triglyceride contents (19.6 mg) in the level of SD group.

[3] = Body weight in HFD-induced fatty liver rat model; assay type: in vivo, Male GK rats; conditions: for body weight increase compared with HFD alone: 6 weeks, HFD + drug versus HFD alone; for Body Weight, Pre: before feeding
Text: Male GK rats (9 weeks of age, 6 rats per group) received HFD (containing 30% beef tallow) for 6 weeks.

SMILES: C[C@H](N)C(=O)O [L-alanine]
- liver weight ([1]; one rat of 5 (normalized), CDD alone 14.5 to 20.0 g): 10.6 g
- histological fat accumulation in the liver ([1]; the one rat of 5 with normalized liver weight): not recognized
- liver triglyceride contents [2]: 19.6 mg
- body weight increase compared with HFD alone [3]: not observed
- Body Weight, Post (at 6 weeks) ([3]; after 6 weeks of HFD mixed with drug, means ± SD (n = 6)): 331.8 ± 20.5 g
- Body Weight, Pre ([3]; means ± SD (n = 6)): 219.8 ± 13.0 g

SMILES: CCc1ccc(CCOc2ccc(CC3SC(=O)NC3=O)cc2)nc1 (centres unmarked) [pioglitazone, reference compound]
- body weight increase compared with HFD alone [3]: significantly more increased
- Body Weight, Pre ([3]; means ± SD (n = 6)): 222.1 ± 9.9 g

Reference: patent US20060089412A1, “Pharmaceutical composition for the treatment of non-alcoholic fatty liver disease” (AJINOMOTO CO. INC., priority 2004, published 2006)
